Experimental findings from ChEMBL document CHEMBL3734738, “A structure-activity relationship of non-peptide macrocyclic histone deacetylase inhibitors and their anti-proliferative and anti-inflammatory activities” (Bioorg Med Chem, 2015) are described below.

One assay concerns the target Histone deacetylase 1 (Homo sapiens, UniProt Q13547). The assay is described as follows: Inhibition of recombinant HDAC1 (unknown origin) expressed in Escherichia coli BL21(DE3) after 60 mins using trichostatin A by label-free mass spectrometry-based SAMDI assay.
For assay [1], the target named is T1, Protein deacetylase HDAC6 (Homo sapiens, UniProt Q9UBN7).
T1 sequence (Q9UBN7 whole entry): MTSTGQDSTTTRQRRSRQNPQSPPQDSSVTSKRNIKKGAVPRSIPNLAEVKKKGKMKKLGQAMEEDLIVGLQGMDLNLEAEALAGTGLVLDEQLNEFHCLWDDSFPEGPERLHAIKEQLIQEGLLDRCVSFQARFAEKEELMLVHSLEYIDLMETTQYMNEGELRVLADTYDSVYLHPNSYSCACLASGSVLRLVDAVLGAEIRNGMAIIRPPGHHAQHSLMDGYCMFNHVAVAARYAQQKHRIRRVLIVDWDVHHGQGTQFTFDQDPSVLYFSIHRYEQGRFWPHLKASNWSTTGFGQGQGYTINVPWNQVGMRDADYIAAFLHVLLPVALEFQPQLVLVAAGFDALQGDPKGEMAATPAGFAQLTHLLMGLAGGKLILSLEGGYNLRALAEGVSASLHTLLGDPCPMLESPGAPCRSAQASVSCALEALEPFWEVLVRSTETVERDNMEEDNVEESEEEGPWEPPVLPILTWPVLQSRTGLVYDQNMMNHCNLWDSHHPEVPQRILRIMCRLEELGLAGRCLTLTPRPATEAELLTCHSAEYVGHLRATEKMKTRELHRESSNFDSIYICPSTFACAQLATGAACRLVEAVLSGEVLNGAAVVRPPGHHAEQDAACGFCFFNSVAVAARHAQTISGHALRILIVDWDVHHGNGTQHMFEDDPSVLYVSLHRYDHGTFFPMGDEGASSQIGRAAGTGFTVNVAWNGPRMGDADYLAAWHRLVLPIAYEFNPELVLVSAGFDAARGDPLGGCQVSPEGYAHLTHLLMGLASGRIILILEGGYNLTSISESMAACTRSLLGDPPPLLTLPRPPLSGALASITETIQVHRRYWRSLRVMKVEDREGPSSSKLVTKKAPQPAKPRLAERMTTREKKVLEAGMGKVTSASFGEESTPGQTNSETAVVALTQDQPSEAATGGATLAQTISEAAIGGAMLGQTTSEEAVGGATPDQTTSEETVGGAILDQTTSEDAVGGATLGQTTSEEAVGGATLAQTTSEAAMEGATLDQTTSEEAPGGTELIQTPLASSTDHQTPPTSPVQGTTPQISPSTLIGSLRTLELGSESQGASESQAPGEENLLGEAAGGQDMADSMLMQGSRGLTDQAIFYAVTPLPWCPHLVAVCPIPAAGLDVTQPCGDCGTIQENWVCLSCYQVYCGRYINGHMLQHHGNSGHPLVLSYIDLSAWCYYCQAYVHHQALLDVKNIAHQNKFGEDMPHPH
The assay is described as follows: Inhibition of recombinant HDAC6 (unknown origin) expressed in Escherichia coli BL21(DE3) after 60 mins using trichostatin A by label-free mass spectrometry-based SAMDI assay.

The next assay addresses T2, Histone deacetylase 8 (Homo sapiens, UniProt Q9BY41).
T2 sequence (Q9BY41 whole entry): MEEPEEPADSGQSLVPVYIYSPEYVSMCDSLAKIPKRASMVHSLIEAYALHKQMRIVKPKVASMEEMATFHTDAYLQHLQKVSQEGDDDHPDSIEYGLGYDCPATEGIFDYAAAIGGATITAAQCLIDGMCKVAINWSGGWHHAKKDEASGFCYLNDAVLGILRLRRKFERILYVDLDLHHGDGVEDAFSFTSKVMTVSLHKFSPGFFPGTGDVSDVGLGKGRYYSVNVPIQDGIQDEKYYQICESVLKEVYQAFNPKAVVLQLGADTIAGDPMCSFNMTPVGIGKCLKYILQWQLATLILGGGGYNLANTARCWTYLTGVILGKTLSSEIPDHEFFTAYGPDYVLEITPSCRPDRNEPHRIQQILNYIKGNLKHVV
The experiment in a line: Inhibition of recombinant HDAC8 (unknown origin) expressed in Escherichia coli BL21(DE3) after 60 mins using trichostatin A by label-free mass spectrometry-based SAMDI assay.

Sequence of Histone deacetylase 1 (Q13547 whole entry): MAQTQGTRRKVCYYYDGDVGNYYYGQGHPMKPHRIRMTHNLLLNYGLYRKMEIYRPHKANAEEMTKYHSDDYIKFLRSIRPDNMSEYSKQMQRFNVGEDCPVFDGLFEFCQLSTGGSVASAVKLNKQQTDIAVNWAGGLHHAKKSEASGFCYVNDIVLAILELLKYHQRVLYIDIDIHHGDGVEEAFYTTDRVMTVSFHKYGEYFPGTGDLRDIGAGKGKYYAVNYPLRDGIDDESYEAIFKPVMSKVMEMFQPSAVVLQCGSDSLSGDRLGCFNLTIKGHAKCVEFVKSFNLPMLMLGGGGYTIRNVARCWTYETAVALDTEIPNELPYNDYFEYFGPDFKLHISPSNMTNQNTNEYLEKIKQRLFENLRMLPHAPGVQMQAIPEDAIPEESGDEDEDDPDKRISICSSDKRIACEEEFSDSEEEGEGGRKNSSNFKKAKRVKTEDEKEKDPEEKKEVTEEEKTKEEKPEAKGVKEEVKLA

Consider `CC[C@H]1OC(=O)[C@H](C)C(=O)[C@H](C)[C@@H](O[C@@H]2O[C@H](C)C[C@H](N(C)Cc3ccc(-c4cn(CCCC(=O)NO)nn4)cc3)[C@H]2O)[C@@](C)(OC)C[C@@H](C)C2=NCCN3C(=O)O[C@@]1(C)[C@H]3[C@H]2C`, for which the results for the IC50 (at Histone deacetylase 1; in assay [1]; on Histone deacetylase 8) were more than 10 µM, 0.194 µM and 2.24 µM, respectively.

As to `CC[C@H]1OC(=O)[C@H](C)C(=O)[C@H](C)[C@@H](O[C@@H]2O[C@H](C)C[C@H](N(C)Cc3ccc(-c4cn(CCC(=O)NO)nn4)cc3)[C@H]2O)[C@@](C)(OC)C[C@@H](C)C2=NCCN3C(=O)O[C@@]1(C)[C@H]3[C@H]2C`, the IC50 at Histone deacetylase 1 is more than 10 µM; in assay [1] it was 1.73 µM; on Histone deacetylase 8, more than 10 µM.

For the compound `CC[C@H]1OC(=O)[C@@H](C)[C@H](O[C@H]2C[C@@](C)(OC)[C@](O)(CN(C)Cc3ccc(-c4cn(CCCCC(=O)NO)nn4)cc3)[C@H](C)O2)[C@H](C)[C@H](O[C@H]2O[C@@H](C)C[C@@H](N(C)C)[C@@H]2O)[C@@](C)(O)C[C@H](C)CN(C)[C@@H](C)[C@H](O)[C@@]1(C)O`, the IC50 on Histone deacetylase 1 is 0.531 µM; in assay [1] it was 0.0953 µM; at Histone deacetylase 8, 0.709 µM.

For the compound `CC[C@@H]1OC(=O)[C@H](C)[C@@H](O[C@H]2C[C@@](C)(OC)[C@](O)(CN(C)C)[C@H](C)O2)[C@@H](C)[C@@H](O[C@@H]2O[C@H](C)C[C@H](N(C)Cc3ccc(-c4cn(CCCCCC(=O)NO)nn4)cc3)[C@H]2O)[C@](C)(O)C[C@@H](C)CN(C)[C@H](C)[C@@H](O)[C@]1(C)O`, the IC50 on Histone deacetylase 1 worked out at 0.16 µM; in assay [1] it was 0.0147 µM; on Histone deacetylase 8 it was 1.09 µM.

For `CC[C@@H]1OC(=O)[C@H](C)[C@@H](O[C@@H]2C[C@](C)(OC)[C@H](O)[C@@H](C)O2)[C@@H](C)[C@@H](O[C@@H]2O[C@H](C)C[C@H](N(C)Cc3ccc(-c4cn(CCCCC(=O)NO)nn4)cc3)[C@H]2O)[C@](C)(O)C[C@@H](C)CN(C)[C@H](C)[C@@H](O)[C@]1(C)O`, the figures for the IC50 (on Histone deacetylase 1; in assay [1]; on Histone deacetylase 8) were 1.65 µM, 0.145 µM and 5.38 µM, respectively.

As for `CC[C@@H]1OC(=O)[C@@H](C)[C@H](O[C@H]2C[C@@](C)(OC)[C@@H](O)[C@H](C)O2)[C@H](C)[C@H](O[C@@H]2O[C@H](C)C[C@H](N(C)Cc3ccc(-c4cn(CCC(=O)NO)nn4)cc3)[C@H]2O)[C@@](C)(OC)C[C@H](C)C(=O)[C@@H](C)[C@@H](O)[C@@]1(C)O`, the half-inhibitory concentration (IC50) on Histone deacetylase 1 is more than 10 µM; in assay [1], 0.919 µM; on Histone deacetylase 8, 2.45 µM.

For `CC[C@H]1OC(=O)[C@H](C)C(=O)[C@H](C)[C@@H](O[C@@H]2O[C@H](C)C[C@H](N(C)Cc3ccccc3-c3cn(CCCCCC(=O)NO)nn3)[C@H]2O)[C@@](C)(OC)C[C@@H](C)C2=NCCN3C(=O)O[C@@]1(C)[C@H]3[C@H]2C`, the results for the IC50 (on Histone deacetylase 1; in assay [1]; on Histone deacetylase 8) were more than 10 µM, 0.248 µM and 1.19 µM, respectively.

As to `CC[C@H]1OC(=O)[C@H](C)[C@@H](O[C@@H]2C[C@](C)(OC)[C@H](O)[C@@H](C)O2)[C@H](C)[C@@H](O[C@@H]2O[C@H](C)C[C@H](N(C)C)[C@H]2O)[C@@](C)(O)C[C@@H](C)CN(Cc2ccc(-c3cn(CCCCCC(=O)NO)nn3)cc2)[C@@H](C)[C@@H](O)[C@]1(C)O`, the IC50 worked out at 0.145 µM at Histone deacetylase 1, 0.0103 µM in assay [1] and 2.37 µM on Histone deacetylase 8.

Consider `CC[C@@H]1OC(=O)[C@@H](C)[C@H](O[C@H]2C[C@@](C)(OC)[C@@H](O)[C@H](C)O2)[C@H](C)[C@H](O[C@@H]2O[C@H](C)C[C@H](N(C)Cc3ccc(-c4cn(CCCCC(=O)NO)nn4)cc3)[C@H]2O)[C@@](C)(OC)C[C@H](C)C(=O)[C@@H](C)[C@@H](O)[C@@]1(C)O`, for which the IC50 at Histone deacetylase 1 stood at 4.87 µM; in assay [1], 0.12 µM; on Histone deacetylase 8, 0.877 µM.

As for `CC[C@H]1OC(=O)[C@@H](C)[C@H](O[C@H]2C[C@@](C)(OC)[C@@H](O)[C@H](C)O2)[C@H](C)[C@H](O[C@H]2O[C@@H](C)C[C@@H](N(C)Cc3ccc(-c4cn(CCCCCC(=O)NO)nn4)cc3)[C@@H]2O)[C@@](C)(O)C[C@H](C)CN(C)[C@@H](C)[C@H](O)[C@@]1(C)O` (stereo in doubt), the results for the IC50 (on Histone deacetylase 1; in assay [1]; at Histone deacetylase 8) were 0.316 µM, 0.0143 µM and 0.604 µM, respectively.

Regarding `CC[C@H]1OC(=O)[C@H](C)[C@@H](O[C@@H]2C[C@](C)(OC)[C@H](O)[C@@H](C)O2)[C@H](C)[C@@H](O[C@@H]2O[C@H](C)C[C@H](N(C)C)[C@H]2O)[C@@](C)(O)C[C@@H](C)CN(Cc2ccc(-c3cn(CCC(=O)NO)nn3)cc2)[C@@H](C)[C@@H](O)[C@]1(C)O`, the results for the IC50 (on Histone deacetylase 1; in assay [1]; on Histone deacetylase 8) were more than 10 µM, 1.23 µM and more than 10 µM, respectively.

Consider `CC[C@@H]1OC(=O)[C@@H](C)[C@H](O[C@H]2C[C@@](C)(OC)[C@@H](O)[C@H](C)O2)[C@H](C)[C@H](O[C@@H]2O[C@H](C)C[C@H](N(C)Cc3ccc(-c4cn(CC(=O)NO)nn4)cc3)[C@H]2O)[C@@](C)(OC)C[C@H](C)C(=O)[C@@H](C)[C@@H](O)[C@@]1(C)O`, for which the IC50 (at Histone deacetylase 1; in assay [1]; at Histone deacetylase 8) was more than 10 µM in each case.

With `CC[C@@H]1OC(=O)[C@@H](C)[C@H](O[C@@H]2C[C@](C)(OC)[C@@](O)(CN(C)C)[C@@H](C)O2)[C@H](C)[C@H](O[C@@H]2O[C@H](C)C[C@H](N(C)Cc3ccc(-c4cn(CCCCCC(=O)NO)nn4)cc3)[C@H]2O)[C@@](C)(OC)C[C@H](C)C(=O)[C@@H](C)[C@@H](O)[C@@]1(C)O`, the values for the IC50 (at Histone deacetylase 1; in assay [1]; on Histone deacetylase 8) were 0.201 µM, 0.0329 µM and 3.2 µM, respectively.

`CC[C@@H]1OC(=O)[C@@H](C)[C@H](O[C@H]2C[C@@](C)(OC)[C@](O)(CN(C)Cc3ccc(-c4cn(CC(=O)NO)nn4)cc3)[C@H](C)O2)[C@H](C)[C@H](O[C@@H]2O[C@H](C)C[C@H](N(C)C)[C@H]2O)[C@@](C)(OC)C[C@H](C)C(=O)[C@@H](C)[C@@H](O)[C@@]1(C)O`: the figures for the IC50 (on Histone deacetylase 1; in assay [1]; at Histone deacetylase 8) were more than 10 µM, 5.35 µM and 7.12 µM, respectively.

As to `CC[C@H]1OC(=O)[C@H](C)C(=O)[C@H](C)[C@@H](O[C@@H]2O[C@H](C)C[C@H](N(C)Cc3ccc(-c4cn(CCCCCC(=O)NO)nn4)cc3)[C@H]2O)[C@@](C)(OC)C[C@@H](C)C2=NCCN3C(=O)O[C@@]1(C)[C@H]3[C@H]2C`, the IC50 turned out to be 0.0731 µM on Histone deacetylase 1, 0.0089 µM in assay [1] and 2.03 µM on Histone deacetylase 8.

Turning to `CC[C@@H]1OC(=O)[C@@H](C)[C@H](O[C@H]2C[C@@](C)(OC)[C@](O)(CN(C)Cc3ccc(-c4cn(CCCCC(=O)NO)nn4)cc3)[C@H](C)O2)[C@H](C)[C@H](O[C@@H]2O[C@H](C)C[C@H](N(C)C)[C@H]2O)[C@@](C)(OC)C[C@H](C)C(=O)[C@@H](C)[C@@H](O)[C@@]1(C)O`, the IC50 was 3.69 µM at Histone deacetylase 1, 0.269 µM in assay [1] and 1.82 µM at Histone deacetylase 8.

Turning to `CC[C@@H]1OC(=O)[C@@H](C)[C@H](O[C@H]2C[C@@](C)(OC)[C@](O)(CN(C)Cc3ccc(-c4cn(CCC(=O)NO)nn4)cc3)[C@H](C)O2)[C@H](C)[C@H](O[C@@H]2O[C@H](C)C[C@H](N(C)C)[C@H]2O)[C@@](C)(OC)C[C@H](C)C(=O)[C@@H](C)[C@@H](O)[C@@]1(C)O`, the results for the IC50 (at Histone deacetylase 1; in assay [1]; at Histone deacetylase 8) were more than 10 µM, 3.56 µM and 10.2 µM, respectively.

As usually defined, the IC50 is the concentration that gives 50% inhibition.
